Measured values published in patent US20260109721A1, “IONIZABLE CATIONIC LIPIDS INCORPORATING SILICON: SYNTHESIS AND LNP FORMULATION” (priority 2023, published 2026).
Read-outs that look alike come from different tables or passages of the source.

Columns and labels:
[1] = LNP size, PDI and zeta potential by Dynamic Light Scattering (Method A); type: physicochemical; settings: LNP formulated with the lipid, DLS
Description: (§1) The synthesized lipids were tested in term of in vitro transfection efficacy and toxicity on HeLa cells. In order to perform the mentioned biological tests, appropriate LNPs had to be formulated from the synthesized lipids. The formulation technique was different in Method A and B. The particle size, polydispersity index (PDI) and zeta potential of resulting LNPs were determined by means of Dynamic Light Scattering technique (DLS). Prior to biological testing the encapsulation efficiency (EE) of the loaded LNPs was determined by using RiboGreen RNA assay. In case of Method A Luc mRNA while in case of Method B GFP mRNA was transfected into the cells. In parallel with the transfection experiments, toxicity of the investigated LNPs was determined, in case of Method A resazurin assay while in case of Method B MTT assay was used. Additionally, the toxicity of the lipids was investigated on HepG2 cells and IC50 values were determined.
• 1. If needed, prepare stock solutions by solving known amounts of lipid powder into an appropriate solvent. The recommended solvent is ethanol and the recommended concentration is typically in the range 10-50 mM. Higher concentrations are preferred to allow flexibility on mRNA-LNP concentration. • 2. Remove the lipid stock solutions from the −20° C. freezer. For long-term storage, −80° C. is used. • 3. Check the vials for precipitation, DOPE (CAS #4004-05-1) (20 mM) and DSPE-PEG (CAS #474922-26-4) (5 mM) may need a 5-30 minute incubation step at 37° C. with intermittent vortexing to resuspend all contents. […] As a last resort, lipids may be heated to 50° C. to resuspend, time should be kept as short as possible to prevent oxidation or other modifying or degradative processes. • 4. Mix the lipids by vortexing for 2 minutes. • 5. […] Cooling the solution prevent excessive evaporation of ethanol or similar solvents upon opening. • 6. Meanwhile, thaw the RNA samples, including the latest SecNLuc control, by inserting the frozen tube in a room temperature aluminium block. • 7. Prepare for each LNP-formulation with identical mRNA component, an RNA master mix according to Table 1 below in a fresh tube. Use of a master mix allows more precise comparison of lipid formulations relative to each other. Split the master mix over a number of fresh tubes equal to the number of samples+controls. Each tube contains 375 μl of mRNA in 10 mM Citrate pH 4.0. • 8. Prepare for each LNP formulation with identical lipid composition a Lipid master mix according to Table 1 below in a fresh tube, exclude the lipid of interest. Use of a master mix allows more precise comparison of the novel ionizable lipid relative to each other. Split the master mix over a number of fresh tubes equal to the number of samples+controls. Each tube contains 65.5 μl of lipid master mix. • 9. Add the ionizable lipid of interest to the equally divide lipid master mix. Mix well by pipetting up and down. Label the tube according to the ionizable lipid used. • 10. Power on the L1 FM (L1 Formulation Machine uses 2 high-speed syringe pumps to mix lipids in organic solvents with mRNA in acidic aquous solution to generate well-defined LNPs. The microfluidic mixing chip involves a dean-type structure performing the high-efficiency mixing at a total flow rate (TFR) of around 12 ml/min at a 3:1 mixing ratio) and allow it to do a calibration of motor positions.
• 18. Fill a fresh syringe (C) through a blunt 18G stainless steel needle with the previously prepared RNA mixture of step 6. The volume should be approximately 85% of total formulation volume+25 μl (dead-volume). Make sure to remove all air bubbles by tapping. • 19. Fill a fresh syringe (D) through a blunt 18G stainless steel needle with the Lipid master mix. The volume should be approximately […] of total formulation volume+25 μl (dead-volume). Again, Make sure to remove all bubbles. • 20. Attach the syringes in the correct orientation, syringe A on the left and syringe B on the right • 21.

HepG2 cell line = assay: In vitro toxicity study on HepG2 cell line (resazurin, viability and IC50); type: cell-based, human; settings: for IC50: read-out: IC50 value, μM (on HepG2 cell)
Description: as §1
HepG2 cell line (human hepatocellular carcinoma) were maintained in DMEM medium supplemented with 10% FBS. Cell toxicity measurements were carried out in 384-well microtiter plates with 1000 cells seeded in each well. Test measurements were carried out in triplicate, and control measurements in quadruplicate. After an overnight incubation, the cells were treated with an increasing concentration of the test compounds (6.25, 12.5, 25, 50, 100, 200, 400, 800 μM). […] 48 h post-treatment, following visual inspection under an inverted microscope, cell viability was measured by resazurin assay. Viability of treated cells was calculated relative to that of ethanol vehicle controls. Concentration response curves (CRCs) were obtained and corresponding IC50 values were calculated where applicable and are shown in Table 9.
Resazurin reagent (Sigma-Aldrich) was dissolved in PBS (pH 7.4) at 0.15 mg/ml concentration, 0.22 μm filtered and aliquoted at −20° C., 10 μl resazurin stock solution was added to wells. After 5 hours incubation at 37° C. under 5% CO2 fluorescence (530 nm excitation/580 nm emission) was recorded on a multimode microplate reader.

[2] = HepG2 cells, 12.5 μM lipid, 48 h post-treatment, resazurin, relative to ethanol vehicle controls
[3] = HepG2 cells, 25 μM lipid, 48 h post-treatment, resazurin, relative to ethanol vehicle controls
[4] = HepG2 cells, 100 μM lipid, 48 h post-treatment, resazurin, relative to ethanol vehicle controls
[5] = HepG2 cells, 200 μM lipid, 48 h post-treatment, resazurin, relative to ethanol vehicle controls
[6] = HepG2 cells, 400 μM lipid, 48 h post-treatment, resazurin, relative to ethanol vehicle controls
[7] = HepG2 cells, 800 μM lipid, 48 h post-treatment, resazurin, relative to ethanol vehicle controls
[8] = Homo sapiens, lipid toxicity, HepG2, 48 h post-treatment, resazurin, 6.25-800 μM
[9] = HepG2 cells, 6.25 μM lipid, 48 h post-treatment, resazurin, relative to ethanol vehicle controls
[10] = HepG2 cells, 50 μM lipid, 48 h post-treatment, resazurin, relative to ethanol vehicle controls

SMILES: CCCCC/C=C\C/C=C\CCCCCCCCO[Si](C)(C)OC(CCCCCCC/C=C\CCCCCCCC)OCCCN(C)C (centres unmarked) [Example 81, (17Z,20Z)-5-((Z)-heptadec-8-en-1-yl)-N,N,7,7-tetramethyl-4,6,8-trioxa-7-silahexacosa-17,20-dien-1-amine]
- PDI [1]: 0.10
- Size (nm) [1]: 104 nm
- Zeta potential (mV) [1]: −25.24 mV

SMILES: CCCCCCCC/C=C\CCCCCCCCOC(=O)C(C)(C)CCC(OCCCCCCCC/C=C\CCCCCCCC)O[Si](C)(C)OCCCCCCN(CCO)CCO (centres unmarked) [Example 94, (Z)-octadec-9-en-1-yl 1-hydroxy-3-(2-hydroxyethyl)-11,11,16,16-tetramethyl-13-(((Z)-octadec-9-en-1-yl)oxy)-10,12-dioxa-3-aza-11-silaheptadecan-17-oate]
- Viability (%) at different lipid concentrations, mean (HepG2 cell line; [2]): 96.6%
- Viability (%) at different lipid concentrations, mean (HepG2 cell line; [3]): 97.9%
- Viability (%) at different lipid concentrations, mean (HepG2 cell line; [4]): 106.5%
- Viability (%) at different lipid concentrations, mean (HepG2 cell line; [5]): 107.9%
- Viability (%) at different lipid concentrations, mean (HepG2 cell line; [6]): 104.0%
- Viability (%) at different lipid concentrations, mean (HepG2 cell line; [7]): 103.1%
- IC50 (HepG2 cell line; [8]): > 800 µM
- Viability (%) at different lipid concentrations, mean (HepG2 cell line; human, 48 h, 6.25 μM): 101.5%
- Viability (%) at different lipid concentrations, mean (HepG2 cell line; human, 48 h, 50 μM): 101.3%
- PDI [1]: 0.24
- Size (nm) [1]: 93.8 nm
- Zeta potential (mV) [1]: −12.89 mV

SMILES: CCCCCCCC/C=C\CCCCCCCCOC(=O)C(C)(C)CC(OCCCCCCCC/C=C\CCCCCCCC)O[Si](C)(C)OCCCCCCN(C)CCO (centres unmarked) [Example 93, (Z)-octadec-9-en-1-yl 1-hydroxy-3,11,11,15,15-pentamethyl-13-(((Z)-octadec-9-en-1-yl)oxy)-10,12-dioxa-3-aza-11-silahexadecan-16-oate]
- Viability (%) at different lipid concentrations, mean (HepG2 cell line; [9]): 102.3%
- Viability (%) at different lipid concentrations, mean (HepG2 cell line; [2]): 99.0%
- Viability (%) at different lipid concentrations, mean (HepG2 cell line; [3]): 105.2%
- Viability (%) at different lipid concentrations, mean (HepG2 cell line; [10]): 112.1%
- Viability (%) at different lipid concentrations, mean (HepG2 cell line; [4]): 111.6%
- Viability (%) at different lipid concentrations, mean (HepG2 cell line; [5]): 99.7%
- Viability (%) at different lipid concentrations, mean (HepG2 cell line; [6]): 83.4%
- Viability (%) at different lipid concentrations, mean (HepG2 cell line; [7]): 72.2%
- IC50 (HepG2 cell line; [8]): > 800 µM
- PDI [1]: 0.15
- Size (nm) [1]: 82.7 nm
- Zeta potential (mV) [1]: −14.61 mV

SMILES: C#CCN(C)CCCCCCO[Si](C)(C)OC(CC(C)(C)C(=O)OCCCCCCCC/C=C\CCCCCCCC)OCCCCCCCC/C=C\CCCCCCCC (centres unmarked) [Example 97, (Z)-octadec-9-en-1-yl 4,12,12,16,16-pentamethyl-14-(((Z)-octadec-9-en-1-yl)oxy)-11,13-dioxa-4-aza-12-silaheptadec-1-yn-17-oate]
- Viability (%) at different lipid concentrations, mean (HepG2 cell line; [9]): 100.7%
- Viability (%) at different lipid concentrations, mean (HepG2 cell line; [2]): 96.1%
- Viability (%) at different lipid concentrations, mean (HepG2 cell line; [3]): 95.5%
- Viability (%) at different lipid concentrations, mean (HepG2 cell line; [10]): 97.5%
- Viability (%) at different lipid concentrations, mean (HepG2 cell line; [4]): 98.9%
- Viability (%) at different lipid concentrations, mean (HepG2 cell line; [5]): 99.7%
- Viability (%) at different lipid concentrations, mean (HepG2 cell line; [6]): 91.8%
- Viability (%) at different lipid concentrations, mean (HepG2 cell line; [7]): 0.7%
- IC50 (HepG2 cell line; Homo sapiens, HepG2, 48 h): 501 µM
- PDI [1]: 0.26
- Size (nm) [1]: 101.9 nm
- Zeta potential (mV) [1]: −22.01 mV

SMILES: CCCCC/C=C\C/C=C\CCCCCCCCOC(CCCCCCCCCCCCCCC)O[Si](C)(C)OCCCCCCN(CCO)CCO (centres unmarked) [Example 43, (23Z,26Z)-3-(2-hydroxyethyl)-11,11-dimethyl-13-pentadecyl-10,12,14-trioxa-3-aza-11-siladotriaconta-23,26-dien-1-ol]
- Viability (%) at different lipid concentrations, mean (HepG2 cell line; [9]): 100.9%
- Viability (%) at different lipid concentrations, mean (HepG2 cell line; [2]): 98.7%
- Viability (%) at different lipid concentrations, mean (HepG2 cell line; [3]): 102.2%
- Viability (%) at different lipid concentrations, mean (HepG2 cell line; [10]): 111.9%
- Viability (%) at different lipid concentrations, mean (HepG2 cell line; [4]): 114.9%
- Viability (%) at different lipid concentrations, mean (HepG2 cell line; [5]): 108.9%
- Viability (%) at different lipid concentrations, mean (HepG2 cell line; [6]): 92.1%
- Viability (%) at different lipid concentrations, mean (HepG2 cell line; [7]): 89.8%
- IC50 (HepG2 cell line; [8]): > 800 µM
- PDI [1]: 0.006
- Size (nm) [1]: 144.9 nm
- Zeta potential (mV) [1]: −7.944 mV

SMILES: CCCCCCCCCCCOC(=O)CCCCCN(CCO)CCCCCCCC(=O)OC(CCCCCCCC)CCCCCCCC [SM-102, reference compound]
- Viability (%) at different lipid concentrations, mean (HepG2 cell line; [9]): 86.5%
- Viability (%) at different lipid concentrations, mean (HepG2 cell line; [2]): 101.5%
- Viability (%) at different lipid concentrations, mean (HepG2 cell line; [3]): 101.7%
- Viability (%) at different lipid concentrations, mean (HepG2 cell line; [10]): 101.4%
- Viability (%) at different lipid concentrations, mean (HepG2 cell line; [4]): 21.2%
- Viability (%) at different lipid concentrations, mean (HepG2 cell line; [5]): 0.4%
- Viability (%) at different lipid concentrations, mean (HepG2 cell line; [6]): 0.2%
- Viability (%) at different lipid concentrations, mean (HepG2 cell line; [7]): 0.0%
- IC50 (HepG2 cell line; lipid toxicity, HepG2, 48 h post-treatment, resazurin, 6.25-800 μM): 85 µM
- Size (nm) [1]: 77.03 nm
- Zeta potential (mV) [1]: −5.03 mV

SMILES: CCCCC/C=C\C/C=C\CCCCCCCCOC(CCCCCCC/C=C\C/C=C\CCCCC)O[Si](C)(C)OCCCCCCN1CCN(CCCCCCO[Si](C)(C)OC(CCCCCCC/C=C\C/C=C\CCCCC)OCCCCCCCC/C=C\C/C=C\CCCCC)CC1 (centres unmarked) [Example 70, 1,4-bis((20Z,23Z)-10-((8Z,11Z)-heptadeca-8,11-dien-1-yl)-8,8-dimethyl-7,9,11-trioxa-8-silanonacosa-20,23-dien-1-yl)piperazine]
- PDI [1]: 0.061
- Size (nm) [1]: 171.4 nm
- Zeta potential (mV) [1]: −10.47 mV

SMILES: CCCCC/C=C\C/C=C\CCCCCCCCOC(CCCCCCC/C=C\C/C=C\CCCCC)O[Si](C)(C)O[Si](C)(C)CCCCCCN(CCO)CCO (centres unmarked) [Example 82, (24Z,27Z)-14-((8Z,11Z)-heptadeca-8,11-dien-1-yl)-3-(2-hydroxyethyl)-10,10,12,12-tetramethyl-11,13,15-trioxa-3-aza-10,12-disilatritriaconta-24,27-dien-1-ol]
- PDI [1]: 0.26
- Size (nm) [1]: 97.5 nm
- Zeta potential (mV) [1]: −16.31 mV

SMILES: CCCCCCCC/C=C\CCCCCCCC(OCC(CCCCCCCC)SCCCCCCCCCC)O[Si](C)(C)OCCCCCCN(CCO)CCO (centres unmarked) [Example 73, (Z)-13-(heptadec-8-en-1-yl)-3-(2-hydroxyethyl)-11,11-dimethyl-16-octyl-10,12,14-trioxa-17-thia-3-aza-11-silaheptacosan-1-ol]
- PDI [1]: 0.16
- Size (nm) [1]: 86.3 nm
- Zeta potential (mV) [1]: −17.46 mV
